# Results taken from ChEMBL document CHEMBL1151555, “Total synthesis of an optically active 8-carba-physostigmine analog: a potent acetylcholinesterase inhibitor” (Bioorg Med Chem Lett, 1991).
# Biological target: Acetylcholinesterase (Homo sapiens, UniProt P22303)
# Assay: Concentration required to inhibit acetylcholinesterase isolated from human erythrocytes
# Sequence of Acetylcholinesterase (P22303 whole entry): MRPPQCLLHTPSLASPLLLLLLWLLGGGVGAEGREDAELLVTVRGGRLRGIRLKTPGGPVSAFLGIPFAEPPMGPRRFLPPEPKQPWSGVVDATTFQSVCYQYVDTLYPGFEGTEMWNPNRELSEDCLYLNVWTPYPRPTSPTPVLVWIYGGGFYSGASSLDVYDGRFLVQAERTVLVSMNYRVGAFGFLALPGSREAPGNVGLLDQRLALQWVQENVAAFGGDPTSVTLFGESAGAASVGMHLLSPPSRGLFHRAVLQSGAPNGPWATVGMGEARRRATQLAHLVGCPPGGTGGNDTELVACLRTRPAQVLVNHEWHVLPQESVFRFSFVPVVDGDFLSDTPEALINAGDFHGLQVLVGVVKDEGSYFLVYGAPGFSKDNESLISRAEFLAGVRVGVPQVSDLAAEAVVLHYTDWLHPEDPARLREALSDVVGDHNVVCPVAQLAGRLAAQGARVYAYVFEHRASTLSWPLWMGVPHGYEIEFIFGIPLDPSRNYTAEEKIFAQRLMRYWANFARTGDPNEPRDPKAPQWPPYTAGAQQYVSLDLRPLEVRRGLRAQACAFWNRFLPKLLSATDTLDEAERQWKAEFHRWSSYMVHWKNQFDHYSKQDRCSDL
row,SMILES,IC50
1,CCCCCCNC(=O)Oc1ccc2c(c1)[C@@]1(C)CCN(CC)[C@H]1C2,233 nM
2,CCCCCCNC(=O)Oc1ccc2c(c1)[C@]1(C)CCN(CC)[C@@H]1C2,20 nM
